Data set [1] in a line: Percentage ionization was measured. It counts as ADME.
The nature of data set [2]: Serum protein binding ability was measured. It counts as ADME.
A short description of data set [3]: physchem.

Our source for the Ionization, Binding and pKa values is ChEMBL document CHEMBL1125627 (J Med Chem, 1991).

The structures appear in SMILES notation. Where only a bound is given, the exact number is not on record here.

Molecule `CC[C@H]1OC(=O)[C@H](C)[C@@H](O[C@H]2C[C@@](C)(OC)[C@@H](O)[C@H](C)O2)[C@H](C)[C@@H](O[C@@H]2O[C@H](C)C[C@H](N(C)C)[C@H]2O)[C@](C)(O)C[C@@H](C)/C(=N\OCOCCOC)[C@H](C)[C@@H](O)[C@]1(C)O` [ROXITHROMYCIN] returned an Ionization in data set [1] of more than 96%. Also, the Binding in data set [2] worked out at 95%. The pKa – broadly, the negative logarithm of the acid dissociation constant – in data set [3] worked out at 9.2.

`CC[C@H]1OC(=O)[C@H](C)[C@@H](O[C@H]2C[C@@](C)(OC)[C@@H](O)[C@H](C)O2)[C@H](C)[C@@H](O[C@@H]2O[C@H](C)C[C@H](N(C)C)[C@H]2O)[C@](C)(O)C[C@@H](C)C(=O)[C@H](C)[C@@H](O)[C@]1(C)O` [ERYTHROMYCIN] displayed an Ionization in data set [1] of more than 96%. Also, the Binding in data set [2] worked out at 80%. Besides, the pKa in data set [3] was determined as 8.8.
